Bounds are passed on as bounds.

The test system of test [1] is endogenous kinases and other proteins enriched by Kinobeads from mixed lysates of K-562, COLO-205, MV-4-11, SK-N-BE(2) and OVCAR-8. Nature of the test: Kinobeads competition binding profiling, two doses (100 nM and 1 µM).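 For all read-outs here: inhibitor preincubated 45 min at 4 °C in cell lysate, then bead pulldown. Bound protein quantified by label-free mass spectrometry relative to DMSO vehicle control.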 Also on record: species or system human. As to conditions: for detection of the designated target by Kinobeads: previous chemical probes; for selectivity in the Kinobeads assay (CATDSmost potent): in words.

The target of test [2] is T1, ACOX1 (Homo sapiens, UniProt Q15067).
T1 construct: endogenous in cells
T1 sequence (Q15067 1-660): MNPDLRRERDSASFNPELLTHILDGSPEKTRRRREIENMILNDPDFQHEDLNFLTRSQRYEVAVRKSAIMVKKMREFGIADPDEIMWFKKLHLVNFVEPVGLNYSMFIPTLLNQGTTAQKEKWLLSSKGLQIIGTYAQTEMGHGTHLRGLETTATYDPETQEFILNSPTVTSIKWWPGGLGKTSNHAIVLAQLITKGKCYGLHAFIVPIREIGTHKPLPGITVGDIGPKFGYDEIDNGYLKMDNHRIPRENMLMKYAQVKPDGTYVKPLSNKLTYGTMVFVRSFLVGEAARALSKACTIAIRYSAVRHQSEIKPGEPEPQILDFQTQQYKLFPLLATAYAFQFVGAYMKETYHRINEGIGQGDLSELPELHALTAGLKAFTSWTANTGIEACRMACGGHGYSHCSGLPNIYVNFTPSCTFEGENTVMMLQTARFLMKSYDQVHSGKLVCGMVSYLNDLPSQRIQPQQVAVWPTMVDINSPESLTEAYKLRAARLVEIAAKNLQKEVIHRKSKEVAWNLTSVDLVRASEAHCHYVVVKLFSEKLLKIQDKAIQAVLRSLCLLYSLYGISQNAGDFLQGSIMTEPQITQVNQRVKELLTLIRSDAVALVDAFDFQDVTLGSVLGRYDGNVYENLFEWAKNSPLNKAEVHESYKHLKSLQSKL
Put plainly: Kinobeads two-dose competition binding: ACOX1.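 Note: competition of compounds with immobilized broad-spectrum kinase inhibitor beads in cell lysate at 100 and 1,000 nM, 45 min at 4 °C, bead-bound protein quantified by label-free MS versus DMSO.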 The conditions noted are these: sheet CATDS matrix 2; Gene Name ACOX1.

The target of test [3] is T2, AAK1 (Homo sapiens, UniProt Q2M2I8).
T2 construct: to maximize the representation of endogenous proteins; endogenous in cells
T2 sequence (Q2M2I8 whole entry): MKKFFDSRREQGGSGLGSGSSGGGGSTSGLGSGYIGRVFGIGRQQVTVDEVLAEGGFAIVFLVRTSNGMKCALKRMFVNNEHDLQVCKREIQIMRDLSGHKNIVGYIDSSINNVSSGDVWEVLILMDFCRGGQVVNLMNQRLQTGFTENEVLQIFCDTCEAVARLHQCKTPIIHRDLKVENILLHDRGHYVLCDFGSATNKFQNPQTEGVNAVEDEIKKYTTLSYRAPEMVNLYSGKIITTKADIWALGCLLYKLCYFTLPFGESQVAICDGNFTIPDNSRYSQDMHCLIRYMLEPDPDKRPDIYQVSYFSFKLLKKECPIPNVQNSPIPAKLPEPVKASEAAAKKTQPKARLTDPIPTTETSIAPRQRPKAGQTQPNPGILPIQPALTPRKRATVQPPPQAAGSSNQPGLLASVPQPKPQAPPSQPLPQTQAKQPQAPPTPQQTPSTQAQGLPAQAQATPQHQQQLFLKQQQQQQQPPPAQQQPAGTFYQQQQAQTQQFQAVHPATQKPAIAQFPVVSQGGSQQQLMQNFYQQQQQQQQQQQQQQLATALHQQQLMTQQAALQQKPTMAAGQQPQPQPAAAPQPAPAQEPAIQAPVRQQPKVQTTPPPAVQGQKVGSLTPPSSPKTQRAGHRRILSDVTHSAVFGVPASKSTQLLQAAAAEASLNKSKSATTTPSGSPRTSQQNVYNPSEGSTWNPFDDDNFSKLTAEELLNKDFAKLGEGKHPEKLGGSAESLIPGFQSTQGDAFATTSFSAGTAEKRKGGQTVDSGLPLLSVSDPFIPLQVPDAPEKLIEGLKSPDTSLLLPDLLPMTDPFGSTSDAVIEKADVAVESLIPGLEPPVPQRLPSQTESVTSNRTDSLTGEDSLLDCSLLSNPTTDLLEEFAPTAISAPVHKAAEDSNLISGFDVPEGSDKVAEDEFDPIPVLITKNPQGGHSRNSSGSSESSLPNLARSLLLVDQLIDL
Put plainly: Kinobeads two-dose competition binding: AAK1.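 For all read-outs here: kinobeads competition pulldown from cell lysate, compound preincubated 45 min at 4 °C, bead-bound protein measured by label-free mass spectrometry against DMSO vehicle control.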 The conditions noted are these: for CATDS: sheet CATDS matrix 2, Gene Name AAK1; for potency estimated from few doses: sheet "Kinobeads Drugmatrix - all", unit inferred, same values below 1000 recur in sheet "nanomolar", read-out: Kinobeads Drugmatrix - all: apparent Kd, AAK1.

Test [4] addresses T3, ABL1 (Homo sapiens, UniProt P00519). Nature of the test: Kinobeads two-dose competition binding: ABL1. The conditions noted are these: sheet "Kinobeads Drugmatrix - all"; unit inferred; read-out: Kinobeads Drugmatrix - all: apparent Kd, ABL1.
In test [5] the target is T4, ABL2 (Homo sapiens, UniProt P42684).
T4 construct: endogenous in cells
T4 sequence (P42684 whole entry): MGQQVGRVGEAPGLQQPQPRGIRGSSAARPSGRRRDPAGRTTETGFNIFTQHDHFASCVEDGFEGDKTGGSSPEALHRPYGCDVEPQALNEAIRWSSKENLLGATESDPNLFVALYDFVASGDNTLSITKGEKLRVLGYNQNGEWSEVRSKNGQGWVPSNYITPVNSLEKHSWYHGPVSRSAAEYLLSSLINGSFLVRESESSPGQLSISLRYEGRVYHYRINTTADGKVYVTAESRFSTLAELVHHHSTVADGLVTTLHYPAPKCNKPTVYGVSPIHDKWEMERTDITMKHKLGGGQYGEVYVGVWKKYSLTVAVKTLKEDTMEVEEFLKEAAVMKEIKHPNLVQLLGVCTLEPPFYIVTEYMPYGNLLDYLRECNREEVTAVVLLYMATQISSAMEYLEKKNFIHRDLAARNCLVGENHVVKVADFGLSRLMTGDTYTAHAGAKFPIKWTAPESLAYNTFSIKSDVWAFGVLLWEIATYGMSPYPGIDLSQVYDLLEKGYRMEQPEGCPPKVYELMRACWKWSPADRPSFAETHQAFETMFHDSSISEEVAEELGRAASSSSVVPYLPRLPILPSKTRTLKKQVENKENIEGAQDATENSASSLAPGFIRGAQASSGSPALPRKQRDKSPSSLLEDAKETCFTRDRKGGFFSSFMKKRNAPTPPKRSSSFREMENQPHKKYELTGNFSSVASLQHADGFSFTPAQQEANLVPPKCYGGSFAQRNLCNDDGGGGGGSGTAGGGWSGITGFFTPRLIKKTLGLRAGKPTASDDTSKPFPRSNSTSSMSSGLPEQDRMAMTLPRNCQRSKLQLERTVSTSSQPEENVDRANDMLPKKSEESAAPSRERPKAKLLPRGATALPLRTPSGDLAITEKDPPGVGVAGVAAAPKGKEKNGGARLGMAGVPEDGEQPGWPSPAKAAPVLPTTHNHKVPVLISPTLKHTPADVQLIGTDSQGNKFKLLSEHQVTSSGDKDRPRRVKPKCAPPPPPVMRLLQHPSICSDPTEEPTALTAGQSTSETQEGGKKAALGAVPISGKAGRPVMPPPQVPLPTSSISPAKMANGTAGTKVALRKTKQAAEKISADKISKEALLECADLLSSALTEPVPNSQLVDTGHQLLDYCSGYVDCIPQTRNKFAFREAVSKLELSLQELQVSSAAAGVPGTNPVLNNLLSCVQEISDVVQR
Put plainly: Kinobeads two-dose competition binding: ABL2. As to conditions: sheet "Kinobeads Drugmatrix - all"; unit inferred; read-out: Kinobeads Drugmatrix - all: apparent Kd, ABL2.

The target of test [6] is T3, ABL1. Nature of the test: Kinobeads two-dose competition binding: ABL1. As to conditions: sheet CATDS matrix 2; Gene Name ABL1.
In test [7] the target is T4, ABL2. Nature of the test: Kinobeads two-dose competition binding: ABL2. As to conditions: sheet CATDS matrix 2; Gene Name ABL2.
Test [8] deals with T5, ACAD11 (Homo sapiens, UniProt Q709F0).
T5 construct: endogenous in cells
T5 sequence (Q709F0 1-780): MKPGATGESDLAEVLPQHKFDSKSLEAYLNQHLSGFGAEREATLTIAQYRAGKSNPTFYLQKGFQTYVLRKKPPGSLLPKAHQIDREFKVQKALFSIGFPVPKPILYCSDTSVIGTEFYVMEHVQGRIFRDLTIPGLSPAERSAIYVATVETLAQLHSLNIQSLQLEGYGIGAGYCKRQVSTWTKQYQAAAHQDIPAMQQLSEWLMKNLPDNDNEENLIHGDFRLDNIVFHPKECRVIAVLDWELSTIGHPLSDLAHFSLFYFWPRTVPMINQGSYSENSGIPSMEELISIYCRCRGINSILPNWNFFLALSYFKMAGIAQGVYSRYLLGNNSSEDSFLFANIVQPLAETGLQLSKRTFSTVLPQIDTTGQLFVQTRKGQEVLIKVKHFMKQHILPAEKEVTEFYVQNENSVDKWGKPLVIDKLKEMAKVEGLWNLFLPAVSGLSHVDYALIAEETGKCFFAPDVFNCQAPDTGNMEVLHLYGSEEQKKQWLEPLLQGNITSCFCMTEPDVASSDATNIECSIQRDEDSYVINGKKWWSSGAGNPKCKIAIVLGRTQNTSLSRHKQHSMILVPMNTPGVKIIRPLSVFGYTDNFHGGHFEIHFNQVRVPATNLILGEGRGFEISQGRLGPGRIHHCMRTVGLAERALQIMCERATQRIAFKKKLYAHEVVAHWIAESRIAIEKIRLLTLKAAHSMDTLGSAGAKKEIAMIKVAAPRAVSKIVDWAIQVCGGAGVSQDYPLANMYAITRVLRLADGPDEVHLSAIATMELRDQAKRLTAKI
Put plainly: Kinobeads two-dose competition binding: ACAD11. The conditions noted are these: sheet CATDS matrix 2; Gene Name ACAD11.

T3 sequence (P00519 28-1130 limits assumed): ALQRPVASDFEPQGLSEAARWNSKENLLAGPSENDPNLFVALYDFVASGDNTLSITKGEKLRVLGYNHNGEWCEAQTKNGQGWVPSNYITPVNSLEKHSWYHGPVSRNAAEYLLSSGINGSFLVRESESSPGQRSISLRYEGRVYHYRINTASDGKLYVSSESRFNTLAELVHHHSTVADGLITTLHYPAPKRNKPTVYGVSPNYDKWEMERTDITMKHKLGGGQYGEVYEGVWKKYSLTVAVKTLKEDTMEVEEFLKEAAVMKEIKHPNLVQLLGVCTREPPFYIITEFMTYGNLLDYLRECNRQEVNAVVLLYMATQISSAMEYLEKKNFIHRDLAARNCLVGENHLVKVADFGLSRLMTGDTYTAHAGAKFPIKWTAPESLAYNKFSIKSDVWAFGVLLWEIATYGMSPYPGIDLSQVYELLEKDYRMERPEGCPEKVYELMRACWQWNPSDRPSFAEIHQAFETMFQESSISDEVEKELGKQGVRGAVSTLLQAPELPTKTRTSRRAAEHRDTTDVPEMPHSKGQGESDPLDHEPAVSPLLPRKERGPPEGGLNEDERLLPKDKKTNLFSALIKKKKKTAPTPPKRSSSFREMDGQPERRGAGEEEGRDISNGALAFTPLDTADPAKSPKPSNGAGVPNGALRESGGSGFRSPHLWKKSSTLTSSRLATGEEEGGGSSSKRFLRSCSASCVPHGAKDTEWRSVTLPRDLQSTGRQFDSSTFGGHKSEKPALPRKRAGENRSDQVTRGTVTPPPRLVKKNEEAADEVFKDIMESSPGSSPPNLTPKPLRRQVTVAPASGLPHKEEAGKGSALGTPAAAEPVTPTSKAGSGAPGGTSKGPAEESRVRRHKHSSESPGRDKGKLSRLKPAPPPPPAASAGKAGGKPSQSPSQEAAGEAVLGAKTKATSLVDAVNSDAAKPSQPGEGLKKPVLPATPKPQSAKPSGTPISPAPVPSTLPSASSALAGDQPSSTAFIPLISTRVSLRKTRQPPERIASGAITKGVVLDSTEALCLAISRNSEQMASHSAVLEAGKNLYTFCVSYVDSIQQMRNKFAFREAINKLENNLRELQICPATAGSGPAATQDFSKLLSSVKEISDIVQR

Turning to `CN(C)C/C=C/C(=O)Nc1ccc(C(=O)N2CCC[C@@H](Nc3ncc(Cl)c(-c4c[nH]c5ccccc45)n3)C2)cc1` [THZ531, reference compound], in test [1], the “detection of the designated target by Kinobeads” value (shortened to “detection”) is “failed to reveal their targets”.
As for `CC(C)c1nc(-c2cccc(NS(=O)(=O)c3c(F)cccc3F)c2)c(-c2ccnc(Nc3ccc(N4CCOCC4)nc3)n2)s1` [GSK1723980B], the CATDS in test [2] turned out to be 0; in test [3], 0; in test [6], 0.0244; in test [7] it was 0.05939; in test [8] it was 0. Further, the values for the potency estimated from few doses in test [4] and in test [5] were 0.301 µM and 0.0613 µM, respectively.
Regarding `COc1ccc(Nc2ncc(C#N)c(Nc3ccccc3C(N)=O)n2)cc1N1CCN(C)CC1` [GSK1558669A], the CATDS in test [2] is recorded as 0; in test [3] it was 0.01049; in test [6] it was 0.01209; in test [7], 0.008409; in test [8] it was 0. The figures for the potency estimated from few doses in test [3], in test [4] and in test [5] were 0.164 µM, 0.112 µM and 0.334 µM, respectively.
As for `CNC(=O)c1ccccc1Nc1nc(Nc2cccc(CS(C)(=O)=O)c2)ncc1C` [GSK1520489A], the CATDS worked out at 0 in test [2]; 0 in test [3]; 0.01362 in test [6]; 0.01375 in test [7]; 0 in test [8]. For the same molecule, the values for the potency estimated from few doses in test [4] and in test [5] were 0.401 µM and 0.389 µM, respectively.
In the case of `CC(=O)N1CCN(c2ccc(Nc3nccc(-c4sc(C(C)C)nc4-c4cccc(NS(=O)(=O)c5cccc(Cl)c5)c4)n3)cn2)CC1` [GSK1660437A], the CATDS in test [2] was 0; in test [3] it was 0; in test [6], 0; in test [7] it was 0.07869; in test [8], 0. The potency estimated from few doses in test [5] is 0.351 µM.
`O=C(NCCO)c1cccc(-c2cc(Nc3ccc(OC(F)(F)F)cc3)ncn2)c1` [GNF-5, reference compound]: the “detection” value in test [1] is “failed to reveal their targets”.
With `CC(C)c1nc(-c2ccc(F)c(NS(=O)(=O)c3c(F)cccc3F)c2)c(-c2ccnc(Nc3ccc(N4CCOCC4)nc3)n2)s1` [GSK1804250A], the CATDS came out at 0 in test [2]; 0 in test [3]; 0.03302 in test [6]; 0.1009 in test [7]; 0 in test [8]. Besides, the potency estimated from few doses in test [4] was 0.97 µM; in test [5] it was 0.126 µM.
On to `CC(C)(C)S(=O)(=O)c1ccc2nccc(Nc3n[nH]c4ccc(F)cc34)c2c1` [GSK583, reference compound], for which, in test [1] (Kinobeads data), the “chemical probe criteria (Kdapp < 1 µM and CATDSmost potent > 0.5)” value is “fulfilled our criteria”.
For `Clc1cc(Cl)cc(Nc2ccnc(Nc3cc(Cl)cc(Cl)c3)n2)c1` [GSK175726A], the CATDS in test [2] is 0; in test [3] it was 0.01178; in test [6] it was 0.026; in test [7], 0.1551; in test [8], 0. For the same molecule, the values for the potency estimated from few doses in test [3], in test [4] and in test [5] were 0.46 µM, 0.0832 µM and 0.00768 µM, respectively.
For the molecule `CCC(=O)Nc1cccc(Oc2nc(Nc3ccc(N4CCN(C)CC4)cc3OC)ncc2Cl)c1` [WZ4003, reference compound], the “selectivity in the Kinobeads assay (CATDSmost potent)” value (shortened to “selectivity in the Kinobeads assay”) in test [1] is listed as “poor selectivity”.
In the case of `CC(=O)N1CCN(c2ccc(Nc3nccc(-c4sc(C(C)C)nc4-c4cccc(NS(=O)(=O)c5ccccc5)c4)n3)cn2)CC1` [GSK1645872A], the CATDS in test [2] came to 0; in test [3], 0; in test [6], 0.02989; in test [7], 0.06803; in test [8], 0. Also, the potency estimated from few doses is 0.746 µM in test [4] and 0.166 µM in test [5].
Regarding `CC(C)c1nc(-c2cccc(NS(=O)(=O)c3c(F)cccc3F)c2F)c(-c2ccnc(Nc3ccc(N4CCOCC4)nc3)n2)s1` [GSK2008607A], the CATDS in test [2] was determined as 0; in test [3], 0; in test [6], 0.02525; in test [7], 0.07581; in test [8] it was 0. The potency estimated from few doses in test [4] is 0.706 µM; in test [5] it was 0.101 µM.
Turning to `COc1cc2nccc(Nc3ccc(Oc4ccccc4)cc3)c2cc1OC` [GI261656A], the CATDS in test [2] is reported as 0; in test [3], 0; in test [6] it was 0.04923; in test [7] it was 0; in test [8] it was 0. Moreover, in test [4], the potency estimated from few doses is 0.661 µM.
As for `CC(C)c1nc(-c2cccc(NS(=O)(=O)c3ccccc3)c2)c(-c2ccnc(Nc3ccc4c(c3)CN(C)CC4)n2)s1` [GSK1649598A], the CATDS in test [2] turned out to be 0; in test [3], 0; in test [6] it was 0.02015; in test [7], 0.03972; in test [8], 0. Also, the potency estimated from few doses in test [4] is 0.368 µM; in test [5], 0.0938 µM.
As to `COc1cc2ncn(-c3cc(OCCCc4ccccc4)c(C(N)=O)s3)c2cc1OC` [GSK205189A], the CATDS in test [2] stood at 0; in test [3], 0; in test [6] it was 0; in test [7], 0.03238; in test [8], 0. For the same molecule, in test [5], the potency estimated from few doses is 0.956 µM.
For `CN1CCc2ccc(Nc3nccc(-c4c(-c5cccc(NC(=O)c6c(F)cccc6F)c5)nc5ccccn45)n3)cc2C1` [GSK1010829B], the CATDS stood at 0 in test [2]; 0 in test [3]; 0 in test [6]; 0.05238 in test [7]; 0 in test [8]. The potency estimated from few doses in test [4] was greater than 1 µM; in test [5], 0.515 µM.
As for `CCOc1cc(C(=O)N2CCC(N3CCN(C)CC3)CC2)ccc1Nc1ncc2c(n1)N(C1CCCC1)c1ccccc1C(=O)N2C` [ERK5-IN-1, reference compound], the “selectivity in the Kinobeads assay” value in test [1] is listed as “very selective”. Further, the CATDS in test [2], in test [3], in test [6], in test [7] and in test [8] was 0 in each case.
As to `CN1C(=O)c2ccccc2N(C)c2nc(Nc3cnn(C4CCNCC4)c3)ncc21` [XMD-17-51, reference compound], the “number of targets in the Kinobead assay” value in test [1] (two-dose Kinobeads) is on record as roughly 50.
Turning to `COC[C@@H](C)N[C@H]1CC[C@H](Nc2cc(-c3cccc(NCC4(C#N)CCOCC4)n3)c(Cl)cn2)CC1` [NVP-2, reference compound], the “detection” value in test [1] is listed as “failed to reveal their targets”.
For the molecule `O=C(O[C@H]1CN[C@H](C#Cc2cc3ncnc(Nc4ccc(OCc5cccc(F)c5)c(Cl)c4)c3s2)C1)N1CCOCC1` [GW869810X], the “selectivity in the Kinobeads assay” value in test [1] was “very selective”.

The values are drawn from article PMC11062922 (Nature Chemical Biology, 2023).
